# Source: patent publication EP1243590A2, “Nucleotide analog composition and synthesis method” (GILEAD SCIENCES, INC., priority 1997, dated 1999)
# Structures can show the parent of a compound that is named as a salt.
# Experiments:
# [1] = human, in vivo
# [2] = Hygroscopicity at 92% relative humidity; assay type: physicochemical; conditions: room temperature, up to 37 days
# [3] = Solid state chemical stability on storage at elevated temperature and relative humidity; assay type: physicochemical; conditions: for BPPF% / mono(POC) PMPA fumarate% / bis(POC) PMPA citrate% / mono(POC) PMPA citrate%: 0 days; for mono(POC) PMPA fumarate%: degradation product in stored BPPF
# Excerpt: The solid state chemical stability of cBPPF and bis(POC)PMPA·citrate salt was compared by analyzing each compound after storage under different conditions.
molecule,measurement,setting,value
9-[2-(R)-[[bis[[(isopropoxycarbonyl)oxy]methoxy] phosphinoyl]methoxy]propyl]-adenine•fumaric acid (1:1) [BPPF],oral bioavailability,[1],30-40%
same,hygroscopicity,[2],not hygroscopic
same,BPPF%,"[3]; 40°C, 75% relative humidity",99.0%
same,mono(POC) PMPA fumarate%,"[3]; 40°C, 75% relative humidity",1.0%
same,BPPF%,"[3]; 60°C, 75% relative humidity",99.0%
same,mono(POC) PMPA fumarate%,"[3]; 60°C, 75% relative humidity",1.0%
same,solid state chemical stability compared with bis(POC)PMPA citrate salt,[3]; storage at elevated temperature and relative humidity,more stable
CC(C)OC(=O)OCOP(=O)(CO[C@H](C)Cn1cnc2c(N)ncnc21)OCOC(=O)OC(C)C [bis(POC) PMPA citrate],bis(POC) PMPA citrate%,"[3]; 40°C, 75% relative humidity",99.0%
same,mono(POC) PMPA citrate%,"[3]; 40°C, 75% relative humidity, degradation product in stored citrate salt",1.0%
same,bis(POC) PMPA citrate%,"[3]; 60°C, 75% relative humidity",99.0%
same,mono(POC) PMPA citrate%,"[3]; 60°C, 75% relative humidity, degradation product in stored citrate salt",1.0%
same,remaining at 336 h,"[3]; solid, 75% rh, 40°C, 75% relative humidity, 14 days, read-out: bis(POC) PMPA citrate%",96.9%
same,remaining at 720 h,"[3]; solid, 75% rh, 40°C, 75% relative humidity, 30 days, read-out: bis(POC) PMPA citrate%",92.9%
same,remaining at 1440 h,"[3]; solid, 75% rh, 40°C, 75% relative humidity, 60 days, read-out: bis(POC) PMPA citrate%",77.6%
same,remaining at 72 h,"[3]; solid, 75% rh, 60°C, 75% relative humidity, 3 days, read-out: bis(POC) PMPA citrate%",24%
same,remaining at 168 h,"[3]; solid, 75% rh, 60°C, 75% relative humidity, 7 days, read-out: bis(POC) PMPA citrate%",6.7%
same,degraded at 336 h,"[3]; solid, 40°C, 75% relative humidity, 14 days, degradation product in stored citrate salt, read-out: mono(POC) PMPA citrate%",3.1%
same,degraded at 720 h,"[3]; solid, 40°C, 75% relative humidity, 30 days, degradation product in stored citrate salt, read-out: mono(POC) PMPA citrate%",7.1%
same,degraded at 1440 h,"[3]; solid, 40°C, 75% relative humidity, 60 days, degradation product in stored citrate salt, read-out: mono(POC) PMPA citrate%",22.4%
same,degraded at 72 h,"[3]; solid, 60°C, 75% relative humidity, 3 days, degradation product in stored citrate salt, other products were generated in addition, read-out: mono(POC) PMPA citrate%",58.9%
same,degraded at 168 h,"[3]; solid, 60°C, 75% relative humidity, 7 days, degradation product in stored citrate salt, other products were generated in addition, read-out: mono(POC) PMPA citrate%",76.2%
